These results are taken from patent US6420131B1, “Use of fluorescein aryl ethers in high throughput cytochrome P450 inhibition assays” (Gentest Corporation, priority 1999, dated 2002).

Assay [1] addresses T1, Rat CYP2C6 (Rattus norvegicus, UniProt P05178).
T1 sequence (P05178 1-490): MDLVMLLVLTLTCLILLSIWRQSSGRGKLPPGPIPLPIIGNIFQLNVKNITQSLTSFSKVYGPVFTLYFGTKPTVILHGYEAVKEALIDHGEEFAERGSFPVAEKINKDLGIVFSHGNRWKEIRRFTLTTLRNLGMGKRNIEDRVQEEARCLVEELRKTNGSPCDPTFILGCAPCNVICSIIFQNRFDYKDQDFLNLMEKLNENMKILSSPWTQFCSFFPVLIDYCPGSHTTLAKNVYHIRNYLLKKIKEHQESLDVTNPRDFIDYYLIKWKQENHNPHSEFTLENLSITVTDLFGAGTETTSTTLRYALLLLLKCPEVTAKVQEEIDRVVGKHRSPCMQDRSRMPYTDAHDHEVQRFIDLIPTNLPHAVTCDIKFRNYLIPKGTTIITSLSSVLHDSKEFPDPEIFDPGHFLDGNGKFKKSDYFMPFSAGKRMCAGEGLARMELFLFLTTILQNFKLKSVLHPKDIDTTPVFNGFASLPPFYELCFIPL
Put plainly: Turnover of fluorometric substrates by rat CYP2C6. Conditions: substrate uM: Ia 2, AMMC 20, CEC 40, MFC 50, BFC 50, BQ 40, BzRes 50; 30 min; enzyme 50 nM.

Assay [2] concerns the target T2, Rat CYP3A2 (Rattus norvegicus, UniProt P05183).
T2 sequence (P05183 1-504): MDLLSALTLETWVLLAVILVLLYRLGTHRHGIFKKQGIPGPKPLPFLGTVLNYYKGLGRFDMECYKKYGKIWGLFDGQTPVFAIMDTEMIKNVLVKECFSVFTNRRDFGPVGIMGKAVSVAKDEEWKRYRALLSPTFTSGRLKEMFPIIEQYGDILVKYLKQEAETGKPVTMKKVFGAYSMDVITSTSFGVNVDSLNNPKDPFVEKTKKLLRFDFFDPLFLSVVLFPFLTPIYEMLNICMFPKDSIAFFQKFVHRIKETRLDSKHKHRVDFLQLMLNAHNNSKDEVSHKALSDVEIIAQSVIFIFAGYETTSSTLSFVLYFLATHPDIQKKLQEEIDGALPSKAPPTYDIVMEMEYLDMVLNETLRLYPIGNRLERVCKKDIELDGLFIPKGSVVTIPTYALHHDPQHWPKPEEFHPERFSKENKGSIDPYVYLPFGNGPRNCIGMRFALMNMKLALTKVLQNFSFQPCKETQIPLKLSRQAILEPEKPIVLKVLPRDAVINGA
Kind of assay: Turnover of fluorometric substrates by rat CYP3A2. Particulars: substrate uM: Ia 2, AMMC 20, CEC 40, MFC 50, BFC 50, BQ 40, BzRes 50; 30 min; enzyme 50 nM.

Assay [3] has as its target T3, Rat CYP2D1 (Rattus norvegicus, UniProt P10633).
T3 sequence (P10633 1-504): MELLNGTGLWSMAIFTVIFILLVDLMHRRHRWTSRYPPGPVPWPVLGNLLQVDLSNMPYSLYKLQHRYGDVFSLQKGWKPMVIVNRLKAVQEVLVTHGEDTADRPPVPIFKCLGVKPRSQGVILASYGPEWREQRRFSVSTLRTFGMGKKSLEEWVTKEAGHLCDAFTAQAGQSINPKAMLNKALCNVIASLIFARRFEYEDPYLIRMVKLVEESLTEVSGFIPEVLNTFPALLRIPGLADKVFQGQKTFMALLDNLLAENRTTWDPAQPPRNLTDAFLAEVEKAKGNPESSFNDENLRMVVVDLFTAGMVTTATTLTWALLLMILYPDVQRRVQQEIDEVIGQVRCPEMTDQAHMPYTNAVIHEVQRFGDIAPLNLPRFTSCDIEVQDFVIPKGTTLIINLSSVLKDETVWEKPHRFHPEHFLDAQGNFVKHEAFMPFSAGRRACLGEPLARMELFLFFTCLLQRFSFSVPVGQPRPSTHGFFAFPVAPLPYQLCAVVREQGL
Kind of assay: Turnover of fluorometric substrates by rat CYP2D1. Conditions: substrate uM: Ia 2, AMMC 20, CEC 40, MFC 50, BFC 50, BQ 40, BzRes 50; 30 min; enzyme 50 nM.

Assay [4] addresses T4, Rat CYP1A1 (Rattus norvegicus, UniProt P00185).
T4 sequence (P00185 1-524): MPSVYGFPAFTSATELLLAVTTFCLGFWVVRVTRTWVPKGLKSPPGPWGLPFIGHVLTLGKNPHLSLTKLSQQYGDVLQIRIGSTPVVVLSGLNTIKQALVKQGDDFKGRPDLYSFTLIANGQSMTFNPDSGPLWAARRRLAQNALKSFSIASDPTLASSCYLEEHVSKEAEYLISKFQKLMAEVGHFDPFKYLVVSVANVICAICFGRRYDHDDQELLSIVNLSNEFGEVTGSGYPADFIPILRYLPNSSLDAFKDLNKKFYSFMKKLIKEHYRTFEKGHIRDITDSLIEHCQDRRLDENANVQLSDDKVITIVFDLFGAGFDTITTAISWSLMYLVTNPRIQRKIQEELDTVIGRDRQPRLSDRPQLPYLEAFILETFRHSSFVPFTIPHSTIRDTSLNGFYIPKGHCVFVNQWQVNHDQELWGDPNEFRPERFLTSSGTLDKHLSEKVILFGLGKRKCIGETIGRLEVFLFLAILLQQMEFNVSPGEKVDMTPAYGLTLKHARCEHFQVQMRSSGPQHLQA
Put plainly: Turnover of fluorometric substrates by rat CYP1A1. Conditions: substrate uM: Ia 2, AMMC 20, CEC 40, MFC 50, BFC 50, BQ 40, BzRes 50; 30 min; enzyme 50 nM (2.5 nM for CEC).

The target of assay [5] is T5, Rat CYP3A1 (Rattus norvegicus, UniProt P04800).
T5 sequence (P04800 1-504): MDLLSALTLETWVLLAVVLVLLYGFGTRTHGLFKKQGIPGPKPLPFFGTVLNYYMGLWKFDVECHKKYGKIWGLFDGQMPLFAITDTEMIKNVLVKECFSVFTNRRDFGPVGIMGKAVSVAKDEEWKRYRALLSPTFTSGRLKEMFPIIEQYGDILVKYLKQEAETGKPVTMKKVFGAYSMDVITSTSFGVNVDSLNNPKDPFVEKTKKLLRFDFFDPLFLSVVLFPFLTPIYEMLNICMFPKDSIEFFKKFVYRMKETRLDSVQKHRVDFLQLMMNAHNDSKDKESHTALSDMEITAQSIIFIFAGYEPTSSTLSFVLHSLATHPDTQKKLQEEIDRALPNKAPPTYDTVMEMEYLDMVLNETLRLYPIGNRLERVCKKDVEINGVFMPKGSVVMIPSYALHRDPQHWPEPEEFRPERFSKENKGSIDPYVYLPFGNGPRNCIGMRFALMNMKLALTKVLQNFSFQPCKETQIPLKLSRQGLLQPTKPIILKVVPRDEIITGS
Put plainly: Turnover of fluorometric substrates by rat CYP3A1. Conditions: substrate uM: Ia 2, AMMC 20, CEC 40, MFC 50, BFC 50, BQ 40, BzRes 50; 30 min; enzyme 50 nM.

With `O=c1cc(C(F)(F)F)c2ccc(OCc3ccccc3)cc2o1` [BFC, 7-Benzyloxy-4-trifluoromethylcoumarin], in assay [1], the “Turnover Numbers, CYP2C6” value is listed as 2.62 pmol product/min/pmol enzyme. For the same compound, in assay [2], the “Turnover Numbers, CYP3A2” value is reported as 1.04 pmol product/min/pmol enzyme. In addition, the “Turnover Numbers, CYP2D1” value in assay [3] is on record as 0.25 pmol product/min/pmol enzyme. In addition, in assay [4], the “Turnover Numbers, CYP1A1” value is recorded as 0.34 pmol product/min/pmol enzyme. In assay [5], the “Turnover Numbers, CYP3A1” value was 1.33 pmol product/min/pmol enzyme.
Regarding `c1ccc(COc2ccc3cccnc3c2)cc1` [BQ, 7-Benzyloxyquinoline], in assay [1], the “Turnover Numbers, CYP2C6” value was 1.9 pmol product/min/pmol enzyme. In assay [2], the “Turnover Numbers, CYP3A2” value was 9.8 pmol product/min/pmol enzyme. The “Turnover Numbers, CYP2D1” value in assay [3] is 5.3 pmol product/min/pmol enzyme. The “Turnover Numbers, CYP1A1” value in assay [4] is on record as 5.7 pmol product/min/pmol enzyme. In assay [5], the “Turnover Numbers, CYP3A1” value was 8.4 pmol product/min/pmol enzyme.
For the compound `O=c1ccc2nc3ccc(OCc4ccccc4)cc3oc-2c1` [BzRes, 7-benzyloxyresorufin], the “Turnover Numbers, CYP2C6” value in assay [1] is given as 0.02 pmol product/min/pmol enzyme. The “Turnover Numbers, CYP3A2” value in assay [2] is reported as 0.09 pmol product/min/pmol enzyme. The “Turnover Numbers, CYP2D1” value in assay [3] is 0.02 pmol product/min/pmol enzyme. Besides, in assay [4], the “Turnover Numbers, CYP1A1” value is recorded as 1.35 pmol product/min/pmol enzyme. Moreover, the “Turnover Numbers, CYP3A1” value in assay [5] is listed as 0.06 pmol product/min/pmol enzyme.
Regarding `CCOc1ccc2cc(C#N)c(=O)oc2c1` [CEC, 7-Ethoxy-3-cyanocoumarin], in assay [1], the “Turnover Numbers, CYP2C6” value is reported as 2.14 pmol product/min/pmol enzyme. Moreover, the “Turnover Numbers, CYP3A2” value in assay [2] is reported as 0.15 pmol product/min/pmol enzyme. Moreover, the “Turnover Numbers, CYP1A1” value in assay [4] is listed as 78 pmol product/min/pmol enzyme. Moreover, the “Turnover Numbers, CYP3A1” value in assay [5] is recorded as 0.08 pmol product/min/pmol enzyme.
On to `O=C(OCc1ccccc1)c1ccccc1-c1c2ccc(=O)cc-2oc2cc(OCc3ccccc3)ccc12` [Compound Ia, O-Benzylfluorescein Benzyl Ester], for which, in assay [1], the “Turnover Numbers, CYP2C6” value was 0.021 pmol product/min/pmol enzyme. Also, in assay [2], the “Turnover Numbers, CYP3A2” value is reported as 0.015 pmol product/min/pmol enzyme. Further, the “Turnover Numbers, CYP2D1” value in assay [3] was 0.159 pmol product/min/pmol enzyme. In assay [4], the “Turnover Numbers, CYP1A1” value is given as 0.211 pmol product/min/pmol enzyme. In addition, the “Turnover Numbers, CYP3A1” value in assay [5] is 0.027 pmol product/min/pmol enzyme.
Take `COc1ccc2c(C(F)(F)F)cc(=O)oc2c1` [MFC, 7-Methoxy-4-trifluoromethylcoumarin]: the “Turnover Numbers, CYP2C6” value in assay [1] was 11.5 pmol product/min/pmol enzyme. The “Turnover Numbers, CYP2D1” value in assay [3] was 0.09 pmol product/min/pmol enzyme. Also, the “Turnover Numbers, CYP1A1” value in assay [4] was 1.03 pmol product/min/pmol enzyme.
